Measured values reported in the supplement of paper PMC4862054.

What was measured:
Assay in all cases: normalised response (% of control), CellTiter-Glo; higher = more viable cells (100 = DMSO, 0 = benzethonium chloride kill control)
Conditions in all cases: incubation time: 72 h
BT-474 = system: BT-474
Procedure, shortened: (§1)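 Two readouts were taken after 72 h: CellTox Green fluorescence (485/520 nm) first, then CellTiter-Glo luminescence after 10 min at room temperature. Breast cancer cell lines had been seeded as 20 µl suspension into 384-well plates holding compound at 5 concentrations in 10-fold steps across a compound-specific 10,000-fold range. Each value is a normalised signal at a single concentration, with plates scaled to 0.1 % DMSO (100) and a positive kill control (0).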

BT-549 = system: BT-549
Procedure, shortened: as §1

CAL-120 = system: CAL-120
Procedure, shortened: as §1

CAL-148 = system: CAL-148
Procedure, shortened: as §1

CAL-51 = system: CAL-51
Procedure, shortened: as §1

CAL-85-1 = system: CAL-85-1
Procedure, shortened: as §1

DU-4475 = system: DU-4475
Procedure, shortened: as §1

HCC1143 = system: HCC1143
Procedure, shortened: as §1

HCC1599 = system: HCC1599
Procedure, shortened: as §1

HCC1937 = system: HCC1937
Procedure, shortened: as §1

HDQ-P1 = system: HDQ-P1
Procedure, shortened: as §1

Hs578T = system: Hs578T
Procedure, shortened: as §1

MCF-10A = system: MCF-10A
Procedure, shortened: as §1

MDA-MB-231 = system: MDA-MB-231
Procedure, shortened: as §1

MDA-MB-436 = system: MDA-MB-436
Procedure, shortened: as §1

MDA-MB-453 = system: MDA-MB-453
Procedure, shortened: as §1

MDA-MB-468 = system: MDA-MB-468
Procedure, shortened: as §1

MFM-223 = system: MFM-223
Procedure, shortened: as §1

SK-BR-3 = system: SK-BR-3
Procedure, shortened: as §1

`CCn1c(-c2nonc2N)nc2cnc(Oc3cccc(NC(=O)c4ccc(OCCN5CCOCC5)cc4)c3)cc21` (1 nM) gave a normalised response (BT-474) of 95.1%, a normalised response (BT-549) of 108% and a normalised response (CAL-120) of 41.8%. The normalised response (CAL-148) was 98.6%, the normalised response (CAL-51) was 114% and the normalised response (CAL-85-1) was 101%. The normalised response (DU-4475) was 94.3%, the normalised response (HCC1143) was 103% and the normalised response (HCC1599) was 103%. For the same molecule, the normalised response (HCC1937) was 104%, the normalised response (HDQ-P1) was 104% and the normalised response (Hs578T) was 99.5%. For the same molecule, the normalised response (MCF-10A) was 102%, the normalised response (MDA-MB-231) was 102% and the normalised response (MDA-MB-436) was 104%. It also gave a normalised response (MDA-MB-453) of 101%, a normalised response (MDA-MB-468) of 95.6% and a normalised response (MFM-223) of 96.8%. The normalised response (SK-BR-3) was 102%.
`CCn1c(-c2nonc2N)nc2cnc(Oc3cccc(NC(=O)c4ccc(OCCN5CCOCC5)cc4)c3)cc21` (10 nM) gave a normalised response (BT-474) of 93.3%, a normalised response (BT-549) of 97.3% and a normalised response (CAL-120) of 92.4%. The normalised response (CAL-148) was 94.9%, the normalised response (CAL-51) was 121% and the normalised response (CAL-85-1) was 102%. For the same molecule, the normalised response (DU-4475) was 94.2%, the normalised response (HCC1143) was 101% and the normalised response (HCC1599) was 104%. For the same molecule, the normalised response (HCC1937) was 104%, the normalised response (HDQ-P1) was 103% and the normalised response (Hs578T) was 104%. It also gave a normalised response (MCF-10A) of 89%, a normalised response (MDA-MB-231) of 99.8% and a normalised response (MDA-MB-436) of 95%. The normalised response (MDA-MB-453) was 91.3%, the normalised response (MDA-MB-468) was 94.3% and the normalised response (MFM-223) was 106%. The normalised response (SK-BR-3) was 117%.
`N#Cc1ccc(COC[C@H]2O[C@@H](n3c(NCc4ccc(Cl)c(Cl)c4)nc4c(N)ncnc43)[C@H](O)[C@@H]2O)cc1` (10 nM) showed a normalised response (BT-474) of 107%, a normalised response (BT-549) of 103% and a normalised response (CAL-120) of 97.2%. The normalised response (CAL-148) was 115%, the normalised response (CAL-51) was 76.3% and the normalised response (CAL-85-1) was 98.1%. The normalised response (DU-4475) was 106%, the normalised response (HCC1143) was 107% and the normalised response (HCC1599) was 92.3%. For the same molecule, the normalised response (HCC1937) was 98.7%, the normalised response (HDQ-P1) was 97.5% and the normalised response (Hs578T) was 101%. For the same molecule, the normalised response (MCF-10A) was 101%, the normalised response (MDA-MB-231) was 106% and the normalised response (MDA-MB-436) was 108%. It also gave a normalised response (MDA-MB-453) of 106%, a normalised response (MDA-MB-468) of 101% and a normalised response (MFM-223) of 113%. It also gave a normalised response (SK-BR-3) of 132%.
In the case of `COc1cc(O)c2c(c1)/C=C/C[C@H](O)[C@H](O)C(=O)/C=C\C[C@H](C)OC2=O` [(5Z)-7-Oxozeaenol] (1 nM), the normalised response (BT-474) is reported as 97.9%, the normalised response (BT-549) is reported as 109% and the normalised response (CAL-120) is reported as 99.8%. The normalised response (CAL-148) was 104%, the normalised response (CAL-51) was 93.9% and the normalised response (CAL-85-1) was 95.2%. For the same molecule, the normalised response (DU-4475) was 96.6%, the normalised response (HCC1143) was 106% and the normalised response (HCC1599) was 91.8%. For the same molecule, the normalised response (HCC1937) was 98.7%, the normalised response (HDQ-P1) was 105% and the normalised response (Hs578T) was 99.9%. For the same molecule, the normalised response (MCF-10A) was 109%, the normalised response (MDA-MB-231) was 103% and the normalised response (MDA-MB-436) was 98%. For the same molecule, the normalised response (MDA-MB-453) was 106%, the normalised response (MDA-MB-468) was 98% and the normalised response (MFM-223) was 108%. The normalised response (SK-BR-3) was 105%.
`COc1cc(O)c2c(c1)/C=C/C[C@H](O)[C@H](O)C(=O)/C=C\C[C@H](C)OC2=O` [(5Z)-7-Oxozeaenol] (10 nM) gave a normalised response (BT-474) of 106%, a normalised response (BT-549) of 103% and a normalised response (CAL-120) of 94.9%. It also gave a normalised response (CAL-148) of 106%, a normalised response (CAL-51) of 107% and a normalised response (CAL-85-1) of 96.4%. The normalised response (DU-4475) was 102%, the normalised response (HCC1143) was 108% and the normalised response (HCC1599) was 121%. The normalised response (HCC1937) was 106%, the normalised response (HDQ-P1) was 96.9% and the normalised response (Hs578T) was 104%. For the same molecule, the normalised response (MCF-10A) was 112%, the normalised response (MDA-MB-231) was 109% and the normalised response (MDA-MB-436) was 99%. For the same molecule, the normalised response (MDA-MB-453) was 93%, the normalised response (MDA-MB-468) was 100% and the normalised response (MFM-223) was 107%. For the same molecule, the normalised response (SK-BR-3) was 107%.
`COc1cc(OC2CCN(C)CC2)ccc1Nc1ncc2c(n1)n(C1CCCC1)c(=O)n2C` [AZ 3146] (10 nM) showed a normalised response (BT-474) of 107%, a normalised response (BT-549) of 96.3% and a normalised response (CAL-120) of 103%. For the same molecule, the normalised response (CAL-148) was 99.7%, the normalised response (CAL-51) was 132% and the normalised response (CAL-85-1) was 102%. The normalised response (DU-4475) was 97%, the normalised response (HCC1143) was 100% and the normalised response (HCC1599) was 95.9%. The normalised response (HCC1937) was 96.1%, the normalised response (HDQ-P1) was 95.9% and the normalised response (Hs578T) was 93%. The normalised response (MCF-10A) was 95.5%, the normalised response (MDA-MB-231) was 104% and the normalised response (MDA-MB-436) was 98.2%. For the same molecule, the normalised response (MDA-MB-453) was 97.8%, the normalised response (MDA-MB-468) was 111% and the normalised response (MFM-223) was 102%. The normalised response (SK-BR-3) was 95.4%.
Work on `CNC(=O)c1cccc(-c2ccc3c(N4CCOC[C@@H]4C)nc(N4CCOC[C@@H]4C)nc3n2)c1` [AZD2014] (1 nM) yielded a normalised response (BT-474) of 97.5%, a normalised response (BT-549) of 102% and a normalised response (CAL-120) of 98.4%. The normalised response (CAL-148) was 111%, the normalised response (CAL-51) was 125% and the normalised response (CAL-85-1) was 95%. The normalised response (DU-4475) was 99.4%, the normalised response (HCC1143) was 104% and the normalised response (HCC1599) was 92%. For the same molecule, the normalised response (HCC1937) was 101%, the normalised response (HDQ-P1) was 98% and the normalised response (Hs578T) was 101%. It also gave a normalised response (MCF-10A) of 114%, a normalised response (MDA-MB-231) of 108% and a normalised response (MDA-MB-436) of 89.7%. The normalised response (MDA-MB-453) was 105%, the normalised response (MDA-MB-468) was 103% and the normalised response (MFM-223) was 106%. It also gave a normalised response (SK-BR-3) of 115%.
Molecule `CNC(=O)c1cccc(-c2ccc3c(N4CCOC[C@@H]4C)nc(N4CCOC[C@@H]4C)nc3n2)c1` [AZD2014] (10 nM) has a normalised response (BT-474) of 99.5%, a normalised response (BT-549) of 96.8% and a normalised response (CAL-120) of 93.5%. For the same molecule, the normalised response (CAL-148) was 106%, the normalised response (CAL-51) was 105% and the normalised response (CAL-85-1) was 97.6%. The normalised response (DU-4475) was 104%, the normalised response (HCC1143) was 99.8% and the normalised response (HCC1599) was 115%. It also gave a normalised response (HCC1937) of 101%, a normalised response (HDQ-P1) of 98.8% and a normalised response (Hs578T) of 104%. It also gave a normalised response (MCF-10A) of 111%, a normalised response (MDA-MB-231) of 97.7% and a normalised response (MDA-MB-436) of 98.5%. The normalised response (MDA-MB-453) was 101%, the normalised response (MDA-MB-468) was 104% and the normalised response (MFM-223) was 106%. For the same molecule, the normalised response (SK-BR-3) was 99%.
In the case of `CN(C)c1nc(N(C)C)nc(N(C)C)n1` [Altretamine] (10 nM), the normalised response (BT-474) is reported as 101%, the normalised response (BT-549) is reported as 100% and the normalised response (CAL-120) is reported as 97.9%. It also gave a normalised response (CAL-148) of 109%, a normalised response (CAL-51) of 101% and a normalised response (CAL-85-1) of 101%. The normalised response (DU-4475) was 100%, the normalised response (HCC1143) was 105% and the normalised response (HCC1599) was 103%. The normalised response (HCC1937) was 99.3%, the normalised response (HDQ-P1) was 98.9% and the normalised response (Hs578T) was 110%. It also gave a normalised response (MCF-10A) of 109%, a normalised response (MDA-MB-231) of 101% and a normalised response (MDA-MB-436) of 96.5%. It also gave a normalised response (MDA-MB-453) of 115%, a normalised response (MDA-MB-468) of 104% and a normalised response (MFM-223) of 109%. For the same molecule, the normalised response (SK-BR-3) was 113%.
For `O=C(/C=C/c1cccc(S(=O)(=O)Nc2ccccc2)c1)NO` [Belinostat] (10 nM), the normalised response (BT-474) was 98.2%, the normalised response (BT-549) was 101% and the normalised response (CAL-120) was 96.9%. The normalised response (CAL-148) was 85.7%, the normalised response (CAL-51) was 80.2% and the normalised response (CAL-85-1) was 93.8%. For the same molecule, the normalised response (DU-4475) was 97.2%, the normalised response (HCC1143) was 99.2% and the normalised response (HCC1599) was 96.5%. It also gave a normalised response (HCC1937) of 94.8%, a normalised response (HDQ-P1) of 88.5% and a normalised response (Hs578T) of 94.3%. For the same molecule, the normalised response (MCF-10A) was 96%, the normalised response (MDA-MB-231) was 98.5% and the normalised response (MDA-MB-436) was 91%. The normalised response (MDA-MB-453) was 97.1%, the normalised response (MDA-MB-468) was 105% and the normalised response (MFM-223) was 88.5%. For the same molecule, the normalised response (SK-BR-3) was 68.9%.
